tested on: M059J; assay: Cell panel screen (CellTiter-Glo); type: cell-based, human; conditions: M059J (Brain), 20 micromolar, 72 hrs
Description: (§1) All cells were obtained from the cell bank of the American Type Culture Collection (ATCC) and cultured in the supplier's recommended media supplemented with 10% FBS. The cell panel screen was measured using the CellTiter-Glo assay (Promega, Madison, WI) following a standard protocol. Briefly, cancer cells were seeded in 96-well plates and cultured overnight at 37°C with or without 5% CO2 in an incubator. Each compound was dissolved with limited DMSO and diluted to a certain concentration with culture medium and then added to the corresponding well of the cell plate. The final concentration of compound was 20 μM. The control cells (without treatment) received the same amount of DMSO and were incubated under the same conditions. After 72 h cultivation, 100 μL of the CellTiter-Glo reagent was added directly to each well for 10-minute incubation. The plate was then read on a FlexStation 3 microplate luminometer (Molecular Devices, USA) to monitor the luminescence signal generated by the luciferase-catalyzed reaction of luciferin and ATP. The percent of growth inhibition was calculated using the following formula: (untreated cells − treated cells)/(untreated cells − background without cells) ∗ 100.

SMILES	Percent Inhibition [%]
CC(C)=CCc1c(O)c(O)cc2oc3cc(O)cc(O)c3c(=O)c12 [bn-10, 1,3,6,7-tetrahydroxy-8-(3-methylbut-2-enyl)xanthone]	9

tested on: NCI-H2405; assay: Cell panel screen (CellTiter-Glo); type: cell-based, human; conditions: NCI-H2405 (Lung), 20 micromolar, 72 hrs
Description: as §1

SMILES	Percent Inhibition [%]
CC(C)=CCc1c(O)c(O)cc2oc3cc(O)cc(O)c3c(=O)c12 [bn-10, 1,3,6,7-tetrahydroxy-8-(3-methylbut-2-enyl)xanthone]	-8

tested on: NCI-H2347; assay: Cell panel screen (CellTiter-Glo); type: cell-based, human; conditions: NCI-H2347 (Lung), 20 micromolar, 72 hrs
Description: as §1

SMILES	Percent Inhibition [%]
CC(C)=CCc1c(O)c(O)cc2oc3cc(O)cc(O)c3c(=O)c12 [bn-10, 1,3,6,7-tetrahydroxy-8-(3-methylbut-2-enyl)xanthone]	9

tested on: T47D; assay: Cell panel screen (CellTiter-Glo); type: cell-based, human; conditions: T47D (Breast), 20 micromolar, 72 hrs
Description: as §1

SMILES	Percent Inhibition [%]
CC(C)=CCc1c(O)c(O)cc2oc3cc(O)cc(O)c3c(=O)c12 [bn-10, 1,3,6,7-tetrahydroxy-8-(3-methylbut-2-enyl)xanthone]	4

tested on: HPAF-II; assay: Cell panel screen (CellTiter-Glo); type: cell-based, human; conditions: HPAF-II (Pancreas), 20 micromolar, 72 hrs
Description: as §1

SMILES	Percent Inhibition [%]
CC(C)=CCc1c(O)c(O)cc2oc3cc(O)cc(O)c3c(=O)c12 [bn-10, 1,3,6,7-tetrahydroxy-8-(3-methylbut-2-enyl)xanthone]	-2

tested on: C8166; assay: Cell panel screen (CellTiter-Glo); type: cell-based, human; conditions: C8166 (Leukemia), 20 micromolar, 72 hrs
Description: as §1

SMILES	Percent Inhibition [%]
CC(C)=CCc1c(O)c(O)cc2oc3cc(O)cc(O)c3c(=O)c12 [bn-10, 1,3,6,7-tetrahydroxy-8-(3-methylbut-2-enyl)xanthone]	23

tested on: BT-474; assay: Cell panel screen (CellTiter-Glo); type: cell-based, human; conditions: BT-474 (Breast), 20 micromolar, 72 hrs
Description: as §1

SMILES	Percent Inhibition [%]
CC(C)=CCc1c(O)c(O)cc2oc3cc(O)cc(O)c3c(=O)c12 [bn-10, 1,3,6,7-tetrahydroxy-8-(3-methylbut-2-enyl)xanthone]	-3

tested on: HT-1197; assay: Cell panel screen (CellTiter-Glo); type: cell-based, human; conditions: HT-1197 (Urinary bladder), 20 micromolar, 72 hrs
Description: as §1

SMILES	Percent Inhibition [%]
CC(C)=CCc1c(O)c(O)cc2oc3cc(O)cc(O)c3c(=O)c12 [bn-10, 1,3,6,7-tetrahydroxy-8-(3-methylbut-2-enyl)xanthone]	8

tested on: NCI-H28; assay: Cell panel screen (CellTiter-Glo); type: cell-based, human; conditions: NCI-H28 (Lung), 20 micromolar, 72 hrs
Description: as §1

SMILES	Percent Inhibition [%]
CC(C)=CCc1c(O)c(O)cc2oc3cc(O)cc(O)c3c(=O)c12 [bn-10, 1,3,6,7-tetrahydroxy-8-(3-methylbut-2-enyl)xanthone]	12

tested on: HCC1599; assay: Cell panel screen (CellTiter-Glo); type: cell-based, human; conditions: HCC1599 (Breast), 20 micromolar, 72 hrs
Description: as §1

SMILES	Percent Inhibition [%]
CC(C)=CCc1c(O)c(O)cc2oc3cc(O)cc(O)c3c(=O)c12 [bn-10, 1,3,6,7-tetrahydroxy-8-(3-methylbut-2-enyl)xanthone]	77

tested on: MSTO-211-H; assay: Cell panel screen (CellTiter-Glo); type: cell-based, human; conditions: MSTO-211-H (Lung), 20 micromolar, 72 hrs
Description: as §1

SMILES	Percent Inhibition [%]
CC(C)=CCc1c(O)c(O)cc2oc3cc(O)cc(O)c3c(=O)c12 [bn-10, 1,3,6,7-tetrahydroxy-8-(3-methylbut-2-enyl)xanthone]	4

tested on: HCC1395; assay: Cell panel screen (CellTiter-Glo); type: cell-based, human; conditions: HCC1395 (Breast), 20 micromolar, 72 hrs
Description: as §1

SMILES	Percent Inhibition [%]
CC(C)=CCc1c(O)c(O)cc2oc3cc(O)cc(O)c3c(=O)c12 [bn-10, 1,3,6,7-tetrahydroxy-8-(3-methylbut-2-enyl)xanthone]	8

tested on: Bel-7402; assay: Cell panel screen (CellTiter-Glo); type: cell-based, human; conditions: Bel-7402 (Liver), 20 micromolar, 72 hrs
Description: as §1

SMILES	Percent Inhibition [%]
CC(C)=CCc1c(O)c(O)cc2oc3cc(O)cc(O)c3c(=O)c12 [bn-10, 1,3,6,7-tetrahydroxy-8-(3-methylbut-2-enyl)xanthone]	7

tested on: HCC1937; assay: Cell panel screen (CellTiter-Glo); type: cell-based, human; conditions: HCC1937 (Breast), 20 micromolar, 72 hrs
Description: as §1

SMILES	Percent Inhibition [%]
CC(C)=CCc1c(O)c(O)cc2oc3cc(O)cc(O)c3c(=O)c12 [bn-10, 1,3,6,7-tetrahydroxy-8-(3-methylbut-2-enyl)xanthone]	32

tested on: BT-549; assay: Cell panel screen (CellTiter-Glo); type: cell-based, human; conditions: BT-549 (Breast), 20 micromolar, 72 hrs
Description: as §1

SMILES	Percent Inhibition [%]
CC(C)=CCc1c(O)c(O)cc2oc3cc(O)cc(O)c3c(=O)c12 [bn-10, 1,3,6,7-tetrahydroxy-8-(3-methylbut-2-enyl)xanthone]	-4

tested on: TCCSUP; assay: Cell panel screen (CellTiter-Glo); type: cell-based, human; conditions: TCCSUP (Urinary bladder), 20 micromolar, 72 hrs
Description: as §1

SMILES	Percent Inhibition [%]
CC(C)=CCc1c(O)c(O)cc2oc3cc(O)cc(O)c3c(=O)c12 [bn-10, 1,3,6,7-tetrahydroxy-8-(3-methylbut-2-enyl)xanthone]	33

tested on: NCI-H1770; assay: Cell panel screen (CellTiter-Glo); type: cell-based, human; conditions: NCI-H1770 (Lung), 20 micromolar, 72 hrs
Description: as §1

SMILES	Percent Inhibition [%]
CC(C)=CCc1c(O)c(O)cc2oc3cc(O)cc(O)c3c(=O)c12 [bn-10, 1,3,6,7-tetrahydroxy-8-(3-methylbut-2-enyl)xanthone]	0

tested on: ChaGo-K-1; assay: Cell panel screen (CellTiter-Glo); type: cell-based, human; conditions: ChaGo-K-1 (Lung), 20 micromolar, 72 hrs
Description: as §1

SMILES	Percent Inhibition [%]
CC(C)=CCc1c(O)c(O)cc2oc3cc(O)cc(O)c3c(=O)c12 [bn-10, 1,3,6,7-tetrahydroxy-8-(3-methylbut-2-enyl)xanthone]	18

tested on: Panc 03.27; assay: Cell panel screen (CellTiter-Glo); type: cell-based, human; conditions: Panc 03.27 (Pancreas), 20 micromolar, 72 hrs
Description: as §1

SMILES	Percent Inhibition [%]
CC(C)=CCc1c(O)c(O)cc2oc3cc(O)cc(O)c3c(=O)c12 [bn-10, 1,3,6,7-tetrahydroxy-8-(3-methylbut-2-enyl)xanthone]	-1

tested on: C3A; assay: Cell panel screen (CellTiter-Glo); type: cell-based, human; conditions: C3A (Liver), 20 micromolar, 72 hrs
Description: as §1

SMILES	Percent Inhibition [%]
CC(C)=CCc1c(O)c(O)cc2oc3cc(O)cc(O)c3c(=O)c12 [bn-10, 1,3,6,7-tetrahydroxy-8-(3-methylbut-2-enyl)xanthone]	20

tested on: RL95; assay: Cell panel screen (CellTiter-Glo); type: cell-based, human; conditions: RL95 (Uterus), 20 micromolar, 72 hrs
Description: as §1

SMILES	Percent Inhibition [%]
CC(C)=CCc1c(O)c(O)cc2oc3cc(O)cc(O)c3c(=O)c12 [bn-10, 1,3,6,7-tetrahydroxy-8-(3-methylbut-2-enyl)xanthone]	15

tested on: CCF-STTG1; assay: Cell panel screen (CellTiter-Glo); type: cell-based, human; conditions: CCF-STTG1 (Brain), 20 micromolar, 72 hrs
Description: as §1

SMILES	Percent Inhibition [%]
CC(C)=CCc1c(O)c(O)cc2oc3cc(O)cc(O)c3c(=O)c12 [bn-10, 1,3,6,7-tetrahydroxy-8-(3-methylbut-2-enyl)xanthone]	8

tested on: NCI-H1694; assay: Cell panel screen (CellTiter-Glo); type: cell-based, human; conditions: NCI-H1694 (Lung), 20 micromolar, 72 hrs
Description: as §1

SMILES	Percent Inhibition [%]
CC(C)=CCc1c(O)c(O)cc2oc3cc(O)cc(O)c3c(=O)c12 [bn-10, 1,3,6,7-tetrahydroxy-8-(3-methylbut-2-enyl)xanthone]	28

tested on: Colo 205; assay: Cell panel screen (CellTiter-Glo); type: cell-based, human; conditions: Colo 205, 20 micromolar, 72 hrs
Description: as §1

SMILES	Percent Inhibition [%]
CC(C)=CCc1c(O)c(O)cc2oc3cc(O)cc(O)c3c(=O)c12 [bn-10, 1,3,6,7-tetrahydroxy-8-(3-methylbut-2-enyl)xanthone]	19

tested on: T98G; assay: Cell panel screen (CellTiter-Glo); type: cell-based, human; conditions: T98G (Brain), 20 micromolar, 72 hrs
Description: as §1

SMILES	Percent Inhibition [%]
CC(C)=CCc1c(O)c(O)cc2oc3cc(O)cc(O)c3c(=O)c12 [bn-10, 1,3,6,7-tetrahydroxy-8-(3-methylbut-2-enyl)xanthone]	21

tested on: NCI-H524; assay: Cell panel screen (CellTiter-Glo); type: cell-based, human; conditions: NCI-H524 (Lung), 20 micromolar, 72 hrs
Description: as §1

SMILES	Percent Inhibition [%]
CC(C)=CCc1c(O)c(O)cc2oc3cc(O)cc(O)c3c(=O)c12 [bn-10, 1,3,6,7-tetrahydroxy-8-(3-methylbut-2-enyl)xanthone]	-20

tested on: HEC-1-A; assay: Cell panel screen (CellTiter-Glo); type: cell-based, human; conditions: HEC-1-A (Uterus), 20 micromolar, 72 hrs
Description: as §1

SMILES	Percent Inhibition [%]
CC(C)=CCc1c(O)c(O)cc2oc3cc(O)cc(O)c3c(=O)c12 [bn-10, 1,3,6,7-tetrahydroxy-8-(3-methylbut-2-enyl)xanthone]	22

tested on: A704; assay: Cell panel screen (CellTiter-Glo); type: cell-based, human; conditions: A704 (Kidney), 20 micromolar, 72 hrs
Description: as §1

SMILES	Percent Inhibition [%]
CC(C)=CCc1c(O)c(O)cc2oc3cc(O)cc(O)c3c(=O)c12 [bn-10, 1,3,6,7-tetrahydroxy-8-(3-methylbut-2-enyl)xanthone]	-11

tested on: A498; assay: Cell panel screen (CellTiter-Glo); type: cell-based, human; conditions: A498 (listed under Lung), 20 micromolar, 72 hrs
Description: as §1

SMILES	Percent Inhibition [%]
CC(C)=CCc1c(O)c(O)cc2oc3cc(O)cc(O)c3c(=O)c12 [bn-10, 1,3,6,7-tetrahydroxy-8-(3-methylbut-2-enyl)xanthone]	25

tested on: ZR-75-30; assay: Cell panel screen (CellTiter-Glo); type: cell-based, human; conditions: ZR-75-30 (Breast), 20 micromolar, 72 hrs
Description: as §1

SMILES	Percent Inhibition [%]
CC(C)=CCc1c(O)c(O)cc2oc3cc(O)cc(O)c3c(=O)c12 [bn-10, 1,3,6,7-tetrahydroxy-8-(3-methylbut-2-enyl)xanthone]	77

tested on: HGC-27; assay: Cell panel screen (CellTiter-Glo); type: cell-based, human; conditions: HGC-27 (Stomach), 20 micromolar, 72 hrs
Description: as §1

SMILES	Percent Inhibition [%]
CC(C)=CCc1c(O)c(O)cc2oc3cc(O)cc(O)c3c(=O)c12 [bn-10, 1,3,6,7-tetrahydroxy-8-(3-methylbut-2-enyl)xanthone]	30

tested on: HCC1569; assay: Cell panel screen (CellTiter-Glo); type: cell-based, human; conditions: HCC1569 (Breast), 20 micromolar, 72 hrs
Description: as §1

SMILES	Percent Inhibition [%]
CC(C)=CCc1c(O)c(O)cc2oc3cc(O)cc(O)c3c(=O)c12 [bn-10, 1,3,6,7-tetrahydroxy-8-(3-methylbut-2-enyl)xanthone]	16

tested on: SW13; assay: Cell panel screen (CellTiter-Glo); type: cell-based, human; conditions: SW13 (Adrenal gland), 20 micromolar, 72 hrs
Description: as §1

SMILES	Percent Inhibition [%]
CC(C)=CCc1c(O)c(O)cc2oc3cc(O)cc(O)c3c(=O)c12 [bn-10, 1,3,6,7-tetrahydroxy-8-(3-methylbut-2-enyl)xanthone]	11

tested on: NCI-H1623; assay: Cell panel screen (CellTiter-Glo); type: cell-based, human; conditions: NCI-H1623 (Lung), 20 micromolar, 72 hrs
Description: as §1

SMILES	Percent Inhibition [%]
CC(C)=CCc1c(O)c(O)cc2oc3cc(O)cc(O)c3c(=O)c12 [bn-10, 1,3,6,7-tetrahydroxy-8-(3-methylbut-2-enyl)xanthone]	-10

tested on: CW-2; assay: Cell panel screen (CellTiter-Glo); type: cell-based, human; conditions: CW-2 (Colon), 20 micromolar, 72 hrs
Description: as §1

SMILES	Percent Inhibition [%]
CC(C)=CCc1c(O)c(O)cc2oc3cc(O)cc(O)c3c(=O)c12 [bn-10, 1,3,6,7-tetrahydroxy-8-(3-methylbut-2-enyl)xanthone]	25

tested on: J82; assay: Cell panel screen (CellTiter-Glo); type: cell-based, human; conditions: J82 (Urinary bladder), 20 micromolar, 72 hrs
Description: as §1

SMILES	Percent Inhibition [%]
CC(C)=CCc1c(O)c(O)cc2oc3cc(O)cc(O)c3c(=O)c12 [bn-10, 1,3,6,7-tetrahydroxy-8-(3-methylbut-2-enyl)xanthone]	29
